Experiments:
Type in all cases: biochemical
hXPG = hXPG (Homo sapiens (Human), UniProt P28715); experiment: Enzymatic IC50 assay, FAM-labeled DNA oligomer substrate, fluorescence intensity (XPG); conditions: hXPG 100 nM, substrate 100 nM, reaction time 120 minutes, 23° C.
Description: (§1) FEN1, EXO1 or XPG enzyme was incubated with compound or vehicle (DMSO) and the FAM-labeled DNA oligomer substrate in a microtiter plate. The stop buffer contains EDTA to stop the enzymatic reaction. The plate is read for fluorescence intensity. The high control (DMSO) with high fluorescence intensity represents no inhibition of enzymatic reaction while the low control (10 μM) with low fluorescence intensity represents full inhibition of enzymatic reaction.
(§2) • FEN1 • hFEN1: 70 pM • Substrate: 100 nM • Reaction time: 20 minutes • EXO1 • hEXO1: 6 nM, Isoforml • Substrate: 30 nM • Reaction time: 60 minutes • XPG • hXPG: 100 nM • Substrate: 100 nM • Reaction time: 120 minutes
(§3) Annealing Buffer: 50 mM Tris-HCl, 50 mM NaCl, 1 mM DTT Assay buffer: 50 mM Tris-HCl pH 8.0, 10 mM MgCl2, 0.01% BSA, 1 mM DTT Stop buffer: 50 mM EDTA in assay buffer Temperature: 23° C. Total volume: 40 μl Controls: • 0% inhibition control: DMSO • 100% inhibition control: 10 μM (final) 5-chloro-3-hydroxy-1,3-dihydroquinazoline-2,4-dione Enzyme Reaction and Detection: • 1. Prepare 25 μM intermediate stock of the substrate by diluting SEQ ID NO:1, SEQ ID NO:2, and SEQ ID NO:3 in annealing buffer, in a PCR tube. • 2. Place the PCR tube on a heat block, heat at 95° C. for 3 minutes, then drop in 0.2° C. increments over 2 minutes, stopping at 25° C. • 3. Remove the tube and let the tube cool at room temperature. • 4. Transfer 10 μL of 3× final concentration test compounds or DMSO to the appropriate wells of a microtiter plate. • 5. Transfer 10 μL of 3× final concentration enzyme in assay buffer or assay buffer alone to the appropriate wells. • 6. Incubate the plate at room temperature for 15 minutes. • 7. Transfer 10 μL of 3× substrate in assay buffer to all the test wells. • 8. Incubate the plate at room temperature for prescribed reaction time. • 9. Centrifuge the plate at 1000 rpm for 1 minute. • 10. Transfer 10 μL of stop buffer to all the test wells. • 11. Centrifuge the plate at 1000 rpm for 1 minute. • 12. Read the plate on a plate reader.

hEXO1, Isoform1 = hEXO1, Isoform1 (Homo sapiens (Human), UniProt Q9UQ84); experiment: Enzymatic IC50 assay, FAM-labeled DNA oligomer substrate, fluorescence intensity (EXO1); conditions: hEXO1 6 nM, substrate 30 nM, reaction time 60 minutes, 23° C.
Description: as §1, §2, §3

hFEN1 = hFEN1 (Homo sapiens (Human), UniProt P39748); experiment: Enzymatic IC50 assay, FAM-labeled DNA oligomer substrate, fluorescence intensity (FEN1); conditions: hFEN1 70 pM, substrate 100 nM, reaction time 20 minutes, 23° C.
How it was run: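 FEN1, EXO1 or XPG was preincubated 15 min with compound, then the FAM-labelled DNA oligomer substrate was added in Tris-HCl pH 8.0 with 10 mM MgCl2 at 23° C. FEN1 was 70 pM with 100 nM substrate for 20 min, EXO1 6 nM with 30 nM for 60 min, and XPG 100 nM with 100 nM for 120 min. Reactions were EDTA-stopped and read by fluorescence intensity.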

Sequence of hEXO1, Isoform1 (Q9UQ84 whole entry, canonical isoform): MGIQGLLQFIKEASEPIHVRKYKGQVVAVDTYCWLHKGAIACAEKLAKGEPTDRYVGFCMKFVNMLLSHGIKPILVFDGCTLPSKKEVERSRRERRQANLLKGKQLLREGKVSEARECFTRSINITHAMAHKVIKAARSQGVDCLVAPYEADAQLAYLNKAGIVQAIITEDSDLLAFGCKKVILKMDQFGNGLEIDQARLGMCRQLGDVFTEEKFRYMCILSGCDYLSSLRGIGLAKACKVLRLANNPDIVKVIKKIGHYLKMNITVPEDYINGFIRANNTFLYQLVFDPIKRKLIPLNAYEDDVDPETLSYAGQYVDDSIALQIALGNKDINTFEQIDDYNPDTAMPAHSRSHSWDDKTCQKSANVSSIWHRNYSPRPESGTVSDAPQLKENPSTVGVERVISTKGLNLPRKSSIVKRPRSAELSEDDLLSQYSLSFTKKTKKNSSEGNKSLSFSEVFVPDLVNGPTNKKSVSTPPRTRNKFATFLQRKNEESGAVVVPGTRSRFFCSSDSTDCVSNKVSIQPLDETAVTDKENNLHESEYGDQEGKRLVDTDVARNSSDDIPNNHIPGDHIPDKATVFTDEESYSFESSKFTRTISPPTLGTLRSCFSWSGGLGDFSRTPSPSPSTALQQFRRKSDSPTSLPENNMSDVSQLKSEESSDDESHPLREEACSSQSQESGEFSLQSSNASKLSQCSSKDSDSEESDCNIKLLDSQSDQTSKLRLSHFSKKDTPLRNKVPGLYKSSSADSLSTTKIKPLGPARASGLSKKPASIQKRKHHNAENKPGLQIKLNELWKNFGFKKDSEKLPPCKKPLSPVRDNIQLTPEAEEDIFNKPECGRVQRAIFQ
Sequence of hXPG (P28715 whole entry): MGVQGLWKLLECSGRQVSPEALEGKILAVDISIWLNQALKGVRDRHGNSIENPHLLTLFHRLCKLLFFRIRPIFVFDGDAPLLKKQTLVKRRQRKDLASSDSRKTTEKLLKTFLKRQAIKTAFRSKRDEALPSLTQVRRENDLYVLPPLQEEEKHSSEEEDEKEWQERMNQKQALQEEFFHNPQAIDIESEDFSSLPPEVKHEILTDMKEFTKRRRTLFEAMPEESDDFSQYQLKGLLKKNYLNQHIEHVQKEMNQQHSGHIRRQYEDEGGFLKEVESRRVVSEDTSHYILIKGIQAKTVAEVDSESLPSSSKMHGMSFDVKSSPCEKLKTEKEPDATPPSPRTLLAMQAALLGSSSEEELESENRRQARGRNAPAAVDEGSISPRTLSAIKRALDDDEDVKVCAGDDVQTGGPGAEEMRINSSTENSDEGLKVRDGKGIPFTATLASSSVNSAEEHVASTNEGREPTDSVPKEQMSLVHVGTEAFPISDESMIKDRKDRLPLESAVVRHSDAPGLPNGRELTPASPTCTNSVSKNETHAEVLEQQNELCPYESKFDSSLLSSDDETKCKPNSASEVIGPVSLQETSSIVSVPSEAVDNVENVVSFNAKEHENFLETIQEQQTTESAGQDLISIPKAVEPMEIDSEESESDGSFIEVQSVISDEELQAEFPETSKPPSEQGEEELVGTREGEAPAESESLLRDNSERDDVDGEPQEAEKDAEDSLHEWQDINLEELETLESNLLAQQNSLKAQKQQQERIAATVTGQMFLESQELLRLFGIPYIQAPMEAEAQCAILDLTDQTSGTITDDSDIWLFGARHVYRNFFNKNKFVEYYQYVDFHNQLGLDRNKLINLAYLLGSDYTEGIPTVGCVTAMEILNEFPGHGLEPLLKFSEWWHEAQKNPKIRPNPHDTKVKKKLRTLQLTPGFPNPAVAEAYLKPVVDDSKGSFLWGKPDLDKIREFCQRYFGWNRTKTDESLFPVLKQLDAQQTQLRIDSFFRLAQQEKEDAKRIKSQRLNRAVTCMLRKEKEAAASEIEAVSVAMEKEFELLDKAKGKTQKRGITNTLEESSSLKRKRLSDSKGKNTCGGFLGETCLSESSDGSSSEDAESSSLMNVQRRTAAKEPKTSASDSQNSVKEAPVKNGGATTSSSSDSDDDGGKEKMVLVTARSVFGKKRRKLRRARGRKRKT
Sequence of hFEN1 (P39748 whole entry): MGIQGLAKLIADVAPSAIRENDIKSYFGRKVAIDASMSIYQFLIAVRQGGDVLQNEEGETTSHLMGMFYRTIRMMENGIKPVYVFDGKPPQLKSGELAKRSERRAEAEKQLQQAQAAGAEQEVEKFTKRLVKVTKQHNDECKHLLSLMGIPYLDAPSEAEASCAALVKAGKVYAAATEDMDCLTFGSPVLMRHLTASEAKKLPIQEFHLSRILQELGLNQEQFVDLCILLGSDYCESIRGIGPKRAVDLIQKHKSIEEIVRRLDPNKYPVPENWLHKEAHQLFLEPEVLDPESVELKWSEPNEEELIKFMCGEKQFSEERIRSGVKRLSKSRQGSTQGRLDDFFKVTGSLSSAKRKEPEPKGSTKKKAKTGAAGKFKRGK

Row | Compound | IC50 (hXPG) [µM] | IC50 (hEXO1, Isoform1) [µM] | IC50 (hFEN1) [µM]
1 | O=C(O)c1c(O)c(=O)n(Cc2cnn(CCc3ccncc3)c2)c2ccsc12 [Example 28, 6-hydroxy-5-oxo-4-({1-[2-(4-pyridyl)ethyl]pyrazol-4-yl}methyl)thieno[3,2-b]pyridine-7-carboxylic acid] | 2.25 to 10 | 2.25 to 10 | < 0.2
2 | COc1ccc(Cn2c(=O)c(O)c(C(=O)O)c3sc(Cc4ccccc4)cc32)cc1 [Example 29, 2-benzyl-6-hydroxy-4-(4-methoxybenzyl)-5-oxo-4,5-dihydrothieno[3,2-b]pyridine-7-carboxylic acid] | 2.25 to 10 | 2.25 to 10 | 2.25 to 10
3 | COc1ccc(Cn2c(=O)c(O)c(C(=O)O)c3sc(C4CC4)cc32)cc1 [Example 30, 2-cyclopropyl-6-hydroxy-4-(4-methoxybenzyl)-5-oxo-4,5-dihydrothieno[3,2-b]pyridine-7-carboxylic acid] | 2.25 to 10 | 0.25 to 0.75 | 0.75 to 2.25
4 | COc1ccc(Cn2cc(Cn3c(=O)c(O)c(C(=O)O)c4sccc43)cn2)cc1 [Example 126, 6-hydroxy-4-{[1-(4-methoxybenzyl)-1H-pyrazol-4-yl]methyl}-5-oxo-4,5-dihydrothieno[3,2-b]pyridine-7-carboxylic acid] | 2.25 to 10 | 2.25 to 10 | 
5 | O=C(O)c1c(O)c(=O)n(Cc2cnn(Cc3ncc4ccccn34)c2)c2ccsc12 [Example 142] | 2.25 to 10 |  | < 0.2
6 | Cc1nn(C)cc1Cn1c(=O)c(O)c(C(=O)O)c2sccc21 [Example 162, 4-[(1,3-dimethyl-1H-pyrazol-4-yl)methyl]-6-hydroxy-5-oxo-4,5-dihydrothieno[3,2-b]pyridine-7-carboxylic acid] |  | 2.25 to 10 | 0.75 to 2.25
7 | O=C(O)c1c(O)c(=O)n(Cc2cnc3c(Br)cccn23)c2ccsc12 [Example 164, 4-[(8-bromoimidazo[1,2-a]pyridin-3-yl)methyl]-6-hydroxy-5-oxo-4,5-dihydrothieno[3,2-b]pyridine-7-carboxylic acid] |  | 0.25 to 0.75 | 0.25 to 0.75
8 | COc1cc(-c2cccn3c(Cn4c(=O)c(O)c(C(=O)O)c5sccc54)cnc23)ccn1 [Example 165, 6-hydroxy-4-{[8-(2-methoxypyridin-4-yl)imidazo[1,2-a]pyridin-3-yl]methyl}-5-oxo-4,5-dihydrothieno[3,2-b]pyridine-7-carboxylic acid] |  | 0.75 to 2.25 | 0.75 to 2.25
9 | CS(=O)(=O)c1ccc(-c2ncc(Cn3c(=O)c(O)c(C(=O)O)c4sccc43)s2)cc1 [Example 166, 6-hydroxy-4-({2-[4-(methylsulfonyl)phenyl)thiazol-5-yl)methyl)-5-oxo-4,5-dihydrothieno[3,2-b]pyridine-7-carboxylic acid] |  | 0.25 to 0.75 | 0.25 to 0.75
10 | O=C(O)c1c(O)c(=O)n(Cc2cnc(-c3cccc4cnccc34)s2)c2ccsc12 [Example 168, 6-hydroxy-4-{[2-(isoquinolin-5-yl)thiazol-5-yl]methyl}-5-oxo-4,5-dihydrothieno[3,2-b]pyridine-7-carboxylic acid] |  | 2.25 to 10 | 2.25 to 10
11 | O=C(O)c1c(O)c(=O)n(Cc2cnc(-c3cccc4ncccc34)s2)c2ccsc12 [Example 169, 6-hydroxy-5-oxo-4-{[2-(quinolin-5-yl)thiazol-5-yl]methyl}-4,5-dihydrothieno[3,2-b]pyridine-7-carboxylic acid] |  | 0.75 to 2.25 | 2.25 to 10
12 | O=C(O)c1c(O)c(=O)n(Cc2cnc(-c3ccnc4ccccc34)s2)c2ccsc12 [Example 170, 6-hydroxy-5-oxo-4-{[2-(quinolin-4-yl)thiazol-5-yl]methyl}-4,5-dihydrothieno[3,2-b]pyridine-7-carboxylic acid] |  | 0.75 to 2.25 | 0.75 to 2.25

Second part, the molecule after the results:

Row | IC50 (hXPG) [µM] | IC50 (hEXO1, Isoform1) [µM] | IC50 (hFEN1) [µM] | Compound
13 | 2.25 to 10 | 2.25 to 10 | 0.25 to 0.75 | O=C(O)c1c(O)c(=O)n(Cc2cccc(Br)c2)c2ccsc12 [Example 1, 4-(3-bromobenzyl)-6-hydroxy-5-oxo-4,5-dihydrothieno[3,2-b]pyridine-7-carboxylic acid]
14 | 2.25 to 10 | 2.25 to 10 | 0.25 to 0.75 | CC(=O)Nc1cccc(-c2cccc(Cn3c(=O)c(O)c(C(=O)O)c4sccc43)c2)c1 [Example 2, 4-((3′-acetamido-[1,1′-biphenyl]-3-yl)methyl)-6-hydroxy-5-oxo-4,5-dihydrothieno[3,2-b]pyridine-7-carboxylic acid]
15 | 2.25 to 10 | 2.25 to 10 | 0.75 to 2.25 | O=C(O)c1c(O)c(=O)n(Cc2ccccc2)c2ccsc12 [Example 3, 4-benzyl-6-hydroxy-5-oxo-4,5-dihydrothieno[3,2-b]pyridine-7-carboxylic acid]
16 | 2.25 to 10 | 2.25 to 10 | 0.25 to 0.75 | O=C(O)c1c(O)c(=O)n(Cc2ccc(Br)cc2)c2ccsc12 [Example 5, 4-(4-bromobenzyl)-6-hydroxy-5-oxo-4,5-dihydrothieno[3,2-b]pyridine-7-carboxylic acid]
17 | 2.25 to 10 | 0.75 to 2.25 | < 0.2 | CC(=O)Nc1cccc(Cn2c(=O)c(O)c(C(=O)O)c3sccc32)c1 [Example 7, 4-[(3-acetamidophenyl)methyl]-6-hydroxy-5-oxo-thieno[3,2-b]pyridine-7-carboxylic acid]
18 | 2.25 to 10 | 2.25 to 10 | < 0.2 | COc1ccc(Cn2c(=O)c(O)c(C(=O)O)c3sccc32)cc1 [Example 12, 6-hydroxy-4-[(4-methoxyphenyl)methyl]-5-oxo-thieno[3,2-b]pyridine-7-carboxylic acid]
19 | 2.25 to 10 | 0.25 to 0.75 | < 0.2 | CS(=O)(=O)Nc1ccc(Cn2c(=O)c(O)c(C(=O)O)c3sccc32)cc1 [Example 16, 6-hydroxy-4-[[4-(methanesulfonamido)phenyl]methyl]-5-oxo-thieno[3,2-b]pyridine-7-carboxylic acid]
20 | 0.75 to 2.25 | 0.25 to 0.75 | 0.25 to 0.75 | O=C(O)c1c(O)c(=O)n(Cc2cn(-c3ccccc3)nn2)c2ccsc12 [Example 18, 6-hydroxy-5-oxo-4-((1-phenyl-1H-1,2,3-triazol-4-yl)methyl)-4,5-dihydrothieno[3,2-b]pyridine-7-carboxylic acid]
21 | 0.25 to 0.75 | 0.25 to 0.75 | < 0.2 | CC(=O)Nc1ccc(-n2cc(Cn3c(=O)c(O)c(C(=O)O)c4sccc43)cn2)cc1 [Example 22, 4-{[1-(4-acetamidophenyl)-1H-pyrazol-4-yl]methyl}-6-hydroxy-5-oxo-4,5-dihydrothieno[3,2-b]pyridine-7-carboxylic acid]
22 | < 0.2 | 0.75 to 2.25 | < 0.2 | O=C(O)c1c(O)c(=O)n(Cc2cnn3ccccc23)c2ccsc12 [Example 24, 6-hydroxy-5-oxo-4-(pyrazolo[1,5-a]pyridin-3-ylmethyl)-4,5-dihydrothieno[3,2-b]pyridine-7-carboxylic acid]
23 | 2.25 to 10 | 2.25 to 10 |  | COc1ccc(Cn2c(=O)c(O)c(C(=O)O)c3sccc32)cn1 [Example 98, 6-hydroxy-4-[(6-methoxypyridin-3-yl)methyl]-5-oxo-4,5-dihydrothieno[3,2-b]pyridine-7-carboxylic acid]
24 | 2.25 to 10 | 0.75 to 2.25 |  | O=C(O)c1c(O)c(=O)n(Cc2cnc3ccccn23)c2ccsc12 [Example 100, 6-hydroxy-4-(imidazo[1,2-a]pyridin-3-ylmethyl)-5-oxo-4,5-dihydrothieno[3,2-b]pyridine-7-carboxylic acid]
25 |  | 2.25 to 10 | < 0.2 | O=C(O)Cn1cc(Cn2c(=O)c(O)c(C(=O)O)c3sccc32)cn1 [Example 163, 4-{[1-(carboxymethyl)-1H-pyrazol-4-yl]methyl}-6-hydroxy-5-oxo-4,5-dihydrothieno[3,2-b]pyridine-7-carboxylic acid]
26 |  | 0.75 to 2.25 | < 0.2 | CS(=O)(=O)Nc1ccc(-c2ncc(Cn3c(=O)c(O)c(C(=O)O)c4sccc43)s2)cc1 [Example 167, 6-hydroxy-4-({2-[4-(methylsulfonamido)phenyl]thiazol-5-yl}methyl)-5-oxo-4,5-dihydrothieno[3,2-b]pyridine-7-carboxylic acid]

Reference: patent publication US11584755B2 (IDEAYA BIOSCIENCES, INC., priority 2017, dated 2023)
